In one assay the test system is ejaculation-like reflex. In words: Ejaculation-like reflex induced by urethral occlusion by a bend at the penile base. Conditions: anesthetized spinal cord-transected male SD rats; 1.0 mg/kg iv; occlusion 10 minutes after dosing; vs pre values; N=3. Format: in vivo, rat. An excerpt: Male SD rats of 300-450 g body weight (Charles River) were used under urethane anesthesia (1.2 g/kg, s.c., ACROS Organic). The skin and muscle on the back were incised to expose the 7th-9th thoracic vertebra. The vertebra on the back side was removed to expose the spinal cord, which was cut at the 8th-10th thoracic vertebra. Gelfoam (Pfizer) was imbedded in the cut site and the muscle and skin were sutured.
The neck skin and muscle were incised, and catheters (Intramedic polyethylene tube No. 50; Becton Dickinson) were inserted into the carotid and jugular vein for measuring the blood pressure and administering a drug, respectively. The other end of the carotid catheter was connected to a pressure transducer (CDXIII Transducer, Argon Medical Devices).
The lower abdominal region was subjected to median incision to expose the bladder. […] The pressure transducers connecting to the catheter inserted into the carotid […] and the catheter inserted into the proximal urethra were connected to a distortion pressure amplifier (Transbridge 4M, World Precision Instruments) installed in a polygraph system (RPS321RM, GRASS Technologies), and the blood pressure and urethral pressure were measured by a Power Labosystem (ML880 and LabChart version 6, AD Instruments) with a lapse of time. […]

In another assay the test system is ejaculatory latency. As to conditions: male rat copulatory behavior study, reported previously; cited from earlier work.

We go through 1 molecule from patent US20110236318A1, “ANIMAL MODEL OF AN EJACULATION-LIKE REFLEX” (ASTELLAS PHARMA INC., priority 2010, published 2011).

With `CCCN(CCC)C1CCc2cccc(O)c2C1` (stereo not drawn) [8-OH-DPAT], in the assay with ejaculation-like reflex, the “latency from the start of occlusion until the first ejaculation-like reflex” value was “shortened the latency of the first ejaculation-like reflex” and the “threshold urethra pressure immediately before the first ejaculation-like reflex” value is on record as “reduced the threshold urethra pressure”. Moreover, the ejaculatory latency entry with ejaculatory latency is given as “shorten the ejaculatory latency”.
